{"source": "patent US20090088364A1", "about": "“Pharmaceutical composition useful for the treatment of invasive pulmonary aspergillosis” (priority 2004, published 2009)", "key": {"A. fumigatus [1]": {"tested_on": "A. fumigatus", "test": "Survival of immunosuppressed IPA mice monitored for 15 days", "type": "in vivo, BALB/c mice", "conditions": "for survival / survival rate: IPA mice", "procedure": "For preparation of animal models of invasive pulmonary aspergillosis, BALB/c mice were divided into various experimental and control groups and subgroups as shown in Table I.\nThe BALB/c mice were immunosuppressed by three intradermal injections of 2.5 mg of hydrocortisone acetate (Wycort) per 20 g mouse per day 1 day before, the day of, and the day after spore challenge.\nOn the day of spore challenge (day 0), mice were lightly anesthesized with ether and 10^8 spores of A. fumigatus in 50 μl of sterile saline were administered intranasally in the groups of IPA mice, while 50 μl of saline alone was administered to the untreated control mice. The MBL-treated control and IPA mice received 1 μg of MBL in 50 μl of saline per mouse on day 1, and the groups of untreated control and untreated IPA mice received 50 μl of saline alone intranasally on day 1.\n(§1) The survival rates of the MBL treated and untreated mice were monitored for 15 days (FIG. 1). Among the rest of the mice left in each group, two mice were sacrificed each on 4th and 7th day after fungal exposure and lung tissues were collected for histopathology and counting the colony forming units of the fungus (CFUs). For estimating the pulmonary fungal load and hyphae density of the mice, lungs were aseptically removed from each group of mice sacrificed on the 4th and 7th day, after the spore challenge. A portion of the lung tissue (10 mg) was homogenized with a mechanical homogenizer for 1 min in sterile PBS. The suspension was serially diluted 2-fold and incubated in triplicates on Sabouraud Agar (SDA) plates at 37° C. A. fumigatus colonies were counted after 24 hrs incubation and the values represent average±standard deviation of six data points (three from each dilution). The number of Colony forming units (CFUs) that appeared on the plates corresponds to the pulmonary fungal load of different groups. […] The other portion of the lung was kept in 10% formalin for histopathological studies of the lung sections.\nThe animal model of invasive pulmonary aspergillosis is prepared by known methods of the immunosuppression of the mice (Allen et al, 1994) followed by exposure to A. fumigatus spores. The mice were immunosuppressed by three intradermal injections of 2.5 mg of hydrocortisone acetate (Wycort) per 20 g of mouse per day one day before, the day of, and the day after spore challenge (day −1, 0, +1).\nOn the day of spore challenge (day 0), mice were lightly anesthesized with ether and 10^8 spores of A. fumigatus in 50 μl of sterile saline were administered intranasally in the groups of IPA mice, while 50 μl of saline alone was administered to the untreated control mice.\nThe administration of different concentrations of purified human rMBL (1-5 µg/mice) in saline intranasally to different groups of mice is described in Table I. The animal models of invasive pulmonary aspergillosis and their respective controls were given treatment with rMBL and amphotericin B. The amphotericin B treated mice acted as the positive control, since amphotericin B is a standard known antifungal agent.\n(§2) The 1 µg rMBL-treated control and IPA mice received 1 μg of rMBL in 50 μl of saline per mouse on day 1. Similarly, 3 μg rMBL-treated control and IPA mice received 3 μg of rMBL in 50 μl of saline per mouse on day 1 and 5 µg rMBL-treated control and IPA mice received 5 μg of rMBL in 50 μl of saline per mouse on day 1. The AmB-treated control and IPA mice received AmB (134.6 μg) only on day 1. The groups of untreated control and untreated IPA mice received 50 μl of saline without rMBL intranasally on day 1.\n(§3) Different groups of mice were monitored for 15 days for survival and thereby their survival rate was calculated."}, "A. fumigatus [2]": {"tested_on": "A. fumigatus", "test": "Pulmonary fungal load (CFU counts in lung homogenate) in IPA mice", "type": "in vivo, BALB/c mice", "conditions": "for fungal load: description", "excerpt": "as §1\nFor estimating the pulmonary fungal load and hyphae density of the mice, lungs were aseptically removed from each group of mice sacrificed on the 4th and 7th day, after the spore challenge. A portion of the lung tissue (10 mg) was homogenized with a mechanical homogenizer for 1 min in sterile PBS. The suspension was serially diluted 2-fold and incubated in triplicate on Sabauraud Agar (SDA) plates at 37° C. A. fumigatus colonies were counted after 24 hrs incubation and the values represent average±standard deviation of six data points (three from each dilution). The number of Colony forming units (CFUs) that appeared on the plates corresponds to the pulmonary fungal load of different groups."}, "A. fumigatus [3]": {"tested_on": "A. fumigatus", "test": "Fungal hyphae density in lung sections (histopathology) of IPA mice", "type": "in vivo, BALB/c mice", "conditions": "for fungal hyphae density compared to untreated IPA mice: FIG. 3, histopathology of lung sections", "excerpt": "as §1\nFor visualization of the fungal hyphae in the lungs of the mice, a portion of the lungs collected from the mice sacrificed on 4th and 7th day from treated and untreated groups after spore challenge and trimmed of extraneous tissue was kept in 10% formalin for histopathological studies and stored at 4° C. The tissue sections, made using a microtome and stained with hematoxylin and eosin, were examined at the magnification of 40×."}, "[4]": {"test": "Survival of immunosuppressed control mice that received no spores", "type": "in vivo, BALB/c mice", "procedure": "as §2, §3"}, "A. fumigatus conidia": {"tested_on": "A. fumigatus conidia", "conditions": "in vitro, purified human MBL; cited from earlier work"}, "[5]": {"conditions": "Example 6, PBS pH 7.2, rMBL 1-5 μg/mice"}, "[6]": {"conditions": "Example 8, TBS pH 7.6, rMBL 1-5 μg/mice"}, "[7]": {"conditions": "Example 9, TBS pH 8.0, rMBL 1-5 ug/mice"}, "[8]": {"conditions": "Example 6, PBS pH 7.2, treated with AmB or rMBL"}, "[9]": {"conditions": "Example 7, PBS pH 7.4, treated with AmB or rMBL"}, "[10]": {"conditions": "Example 8, TBS pH 7.6, treated with AmB or rMBL"}, "[11]": {"conditions": "Example 9, TBS pH 8.0, treated with AmB or rMBL"}}, "note": "Entries after “also recorded” stand apart in the source; their conditions may differ.", "data": [{"compound": "rMBL: purified human recombinant mannan-binding lectin (MBL) protein, in solution form produced by recombinant technology", "values": [{"measurement": "survival", "setting": "A. fumigatus [1]; Example 6, PBS pH 7.2, 1 μg rMBL intranasally day 1", "result": 80, "unit": "%"}, {"measurement": "survival", "setting": "A. fumigatus [1]; Example 6, PBS pH 7.2, 3 μg rMBL intranasally day 1", "result": 80, "unit": "%"}, {"measurement": "survival", "setting": "A. fumigatus [1]; Example 6, PBS pH 7.2, 5 μg rMBL intranasally day 1", "result": 40, "unit": "%"}, {"measurement": "percentage of survival, change in treated IPA mice", "setting": "A. fumigatus [1]; [5]", "result": "increase"}, {"measurement": "survival", "setting": "A. fumigatus [1]; Example 7, PBS pH 7.4, 1 μg rMBL intranasally day 1", "result": 80, "unit": "%"}, {"measurement": "survival", "setting": "A. fumigatus [1]; Example 7, PBS pH 7.4, 5 μg rMBL intranasally day 1", "result": 40, "unit": "%"}, {"measurement": "percentage of survival, change in treated IPA mice", "setting": "A. fumigatus [1]; Example 7, PBS pH 7.4, rMBL 1-5 μg/mice, FIG. 1", "result": "increase"}, {"measurement": "survival", "setting": "A. fumigatus [1]; Example 8, TBS pH 7.6, 1 μg rMBL intranasally day 1", "result": 80, "unit": "%"}, {"measurement": "survival", "setting": "A. fumigatus [1]; Example 8, TBS pH 7.6, 5 μg rMBL intranasally day 1", "result": 40, "unit": "%"}, {"measurement": "percentage of survival, change in treated IPA mice", "setting": "A. fumigatus [1]; [6]", "result": "increase"}, {"measurement": "survival", "setting": "A. fumigatus [1]; Example 9, TBS pH 8.0, 1 μg rMBL intranasally day 1", "result": 80, "unit": "%"}, {"measurement": "survival", "setting": "A. fumigatus [1]; Example 9, TBS pH 8.0, 5 μg rMBL intranasally day 1", "result": 40, "unit": "%"}, {"measurement": "percentage of survival, change in treated IPA mice", "setting": "A. fumigatus [1]; [7]", "result": "increase"}, {"measurement": "survival rate", "setting": "A. fumigatus [1]; FIG. 1, 1 µg MBL intranasally on day 1", "result": 80, "unit": "%"}, {"measurement": "survival rate", "setting": "A. fumigatus [1]; FIG. 1, 3 µg MBL intranasally on day 1", "result": 80, "unit": "%"}, {"measurement": "pulmonary fungal load compared to untreated IPA mice", "setting": "A. fumigatus [2]; [5]", "result": "reduction"}, {"measurement": "CFUs in the lung homogenates", "setting": "A. fumigatus [2]; Example 7, PBS pH 7.4, 4th day after spore challenge, 1 μg rMBL", "result": "4.6±0.5 CFUs×10^6/gm of lung tissue"}, {"measurement": "CFUs in the lung homogenates", "setting": "A. fumigatus [2]; Example 7, PBS pH 7.4, 4th day after spore challenge, 3 μg rMBL", "result": "4.2±0.4 CFUs×10^6/gm of lung tissue"}, {"measurement": "CFUs in the lung homogenates", "setting": "A. fumigatus [2]; Example 7, PBS pH 7.4, 4th day after spore challenge, 5 μg rMBL", "result": "6.4±0.5 CFUs×10^6/gm of lung tissue"}, {"measurement": "pulmonary fungal load compared to untreated IPA mice", "setting": "A. fumigatus [2]; Example 7, PBS pH 7.4, rMBL 1-5 μg/mice", "result": "reduction"}, {"measurement": "pulmonary fungal load compared to untreated IPA mice", "setting": "A. fumigatus [2]; [6]", "result": "reduction"}, {"measurement": "pulmonary fungal load compared to untreated IPA mice", "setting": "A. fumigatus [2]; [7]", "result": "reduction"}, {"measurement": "pulmonary fungal load, CFU counts", "setting": "A. fumigatus [2]; FIG. 2, 4th day after spore challenge, 3 µg MBL treated IPA mice", "result": "4.2±0.4 CFU counts per gram of the lung tissue"}, {"measurement": "fungal load", "setting": "A. fumigatus [2]; FIG. 2, 1 µg MBL treated IPA mice", "result": "4.6±0.5 CFUs×10^6/gm of lung tissue"}, {"measurement": "fungal load", "setting": "A. fumigatus [2]; FIG. 2, 3 µg MBL treated IPA mice", "result": "4.2±0.4 CFUs×10^6/gm of lung tissue"}, {"measurement": "fungal hyphae density in the lungs compared to untreated IPA mice", "setting": "A. fumigatus [3]; Example 6, PBS pH 7.2", "result": "decrease"}, {"measurement": "fungal hyphae density in the lungs compared to untreated IPA mice", "setting": "A. fumigatus [3]; Example 7, PBS pH 7.4, FIG. 3", "result": "decrease"}, {"measurement": "fungal hyphae density in the lungs compared to untreated IPA mice", "setting": "A. fumigatus [3]; Example 8, TBS pH 7.6", "result": "decrease"}, {"measurement": "fungal hyphae density in the lungs compared to untreated IPA mice", "setting": "A. fumigatus [3]; Example 9, TBS pH 8.0", "result": "decrease"}, {"measurement": "fungal hyphae density compared to untreated IPA mice", "setting": "A. fumigatus [3]; listed as MBL", "result": "decreases; also recorded: drastic decrease"}, {"measurement": "survival of control mice", "setting": "[4]; [8]", "result": 100, "unit": "%"}, {"measurement": "survival of control mice", "setting": "[4]; [9]", "result": 100, "unit": "%"}, {"measurement": "survival of control mice", "setting": "[4]; [10]", "result": 100, "unit": "%"}, {"measurement": "survival of control mice", "setting": "[4]; [11]", "result": 100, "unit": "%"}, {"measurement": "concentration range that most effectively mediates the killing of the fungus", "setting": "A. fumigatus conidia", "result": "1 to 5", "unit": "µg/mL"}]}, {"compound": "C[C@@H]1[C@H](O)[C@@H](C)/C=C/C=C/C=C/C=C/C=C/C=C/C=C/[C@H](O[C@@H]2O[C@H](C)[C@@H](O)[C@H](N)[C@@H]2O)C[C@@H]2O[C@](O)(C[C@@H](O)C[C@@H](O)[C@H](O)CC[C@@H](O)C[C@@H](O)CC(=O)O[C@H]1C)C[C@H](O)[C@H]2C(=O)O", "note": "[AmB, Amphotericin B, reference compound]", "values": [{"measurement": "survival", "setting": "A. fumigatus [1]; Example 6, PBS pH 7.2, AmB 134.6 μg on day 1", "result": 80, "unit": "%"}, {"measurement": "survival", "setting": "A. fumigatus [1]; Example 7, PBS pH 7.4, AmB 134.6 μg on day 1", "result": 80, "unit": "%"}, {"measurement": "survival", "setting": "A. fumigatus [1]; Example 8, TBS pH 7.6, AmB 134.6 μg on day 1", "result": 80, "unit": "%"}, {"measurement": "survival", "setting": "A. fumigatus [1]; Example 9, TBS pH 8.0, AmB 134.6 μg on day 1", "result": 80, "unit": "%"}, {"measurement": "survival rate", "setting": "A. fumigatus [1]; FIG. 1, amphotericin B (134.6 μg) on day 1", "result": 80, "unit": "%"}, {"measurement": "CFUs in the lung homogenates", "setting": "A. fumigatus [2]; Example 7, PBS pH 7.4, 4th day after spore challenge, AmB 134.6 μg", "result": "5.65±0.07 CFUs×10^6/gm of lung tissue"}, {"measurement": "fungal load", "setting": "A. fumigatus [2]; FIG. 2, amphotericin B treated IPA mice", "result": "5.65±0.07 CFUs×10^6/gm of lung tissue"}, {"measurement": "fungal hyphae density compared to untreated IPA mice", "setting": "A. fumigatus [3]", "result": "decreases; also recorded: drastic decrease"}, {"measurement": "survival of control mice", "setting": "[4]; [8]", "result": 100, "unit": "%"}, {"measurement": "survival of control mice", "setting": "[4]; [9]", "result": 100, "unit": "%"}, {"measurement": "survival of control mice", "setting": "[4]; [10]", "result": 100, "unit": "%"}, {"measurement": "survival of control mice", "setting": "[4]; [11]", "result": 100, "unit": "%"}]}]}
